Source: patent US20220132852A1, “PESTICIDALLY ACTIVE HETEROCYCLIC DERIVATIVES WITH SULFUR CONTAINING SUBSTITUENTS” (SYNGENTA CROP PROTECTION AG, priority 2019, published 2022)
Where two headings read alike, the source gives them in different places.

Columns and labels:
[1] = test system: Plutella xylostella (Diamond Back Moth); experiment: Example B3: Activity against Plutella xylostella (diamond back moth), artificial diet; type: in vivo; conditions: 192 h, application rate 200 ppm, eggs on artificial diet, 8 days after infestation, read-out: effect in at least one of the two categories (mortality or growth inhibition)
[2] = test system: Frankliniella occidentalis (Western Flower Thrips); experiment: Example B8: Activity against Frankliniella occidentalis (western flower thrips); type: in vivo; conditions: foliar, 168 h, application rate 200 ppm, sprayed sunflower leaf discs, mixed ages, 7 days after infestation
Experimental: Example B8: Activity Against Frankliniella occidentalis (Western Flower Thrips)
Sunflower leaf discs were placed on agar in 24-well microtiter plates and sprayed with aqueous test solutions prepared from […] stock solutions. After drying the leaf discs were infested with a Frankliniella population of mixed ages. The samples were assessed for mortality 7 days after infestation.

[3] = test system: Euschistus heros (Neotropical Brown Stink Bug); experiment: Example B2: Activity against Euschistus heros (neotropical brown stink bug), sprayed soybean leaves; type: in vivo; conditions: 120 h, application rate 200 ppm, N2 nymphs on sprayed soybean leaves, 5 days after infestation, read-out: effect in at least one of the two categories (mortality or growth inhibition)
Experimental: Example B2: Activity Against Euschistus heros (Neotropical Brown Stink Bug)
Soybean leaves on agar in 24-well microtiter plates were sprayed with aqueous test solutions prepared from 10′000 ppm DMSO stock solutions. After drying the leaves were infested with N2 nymphs. The samples were assessed for mortality and growth inhibition in comparison to untreated samples 5 days after infestation.

[4] = test system: Tetranychus urticae (Two-Spotted Spider Mite); experiment: Example B9: Activity against Tetranychus urticae (two-spotted spider mite); type: in vivo; conditions: foliar, 192 h, read-out: mortality on mixed population (mobile stages)
Experimental: Example B9: Activity Against Tetranychus urticae (Two-Spotted Spider Mite)
Bean leaf discs on agar in 24-well microtiter plates were sprayed with aqueous test solutions prepared from 10′000 ppm DMSO stock solutions. After drying the leaf discs were infested with a mite population of mixed ages. The samples were assessed for mortality on mixed population (mobile stages) 8 days after infestation.

[5] = test system: Myzus persicae (Green Peach Aphid); experiment: whole plant or invertebrate; type: in vivo; conditions: foliar, 144 h, application rate 200 ppm, sprayed sunflower leaf discs, mixed ages, 6 days after infestation
Experimental: Example B4: Activity Against Myzus persicae (Green Peach Aphid) Feeding/Contact Activity
Sunflower leaf discs were placed onto agar in a 24-well microtiter plate and sprayed with aqueous test solutions prepared from 10′000 ppm DMSO stock solutions. After drying, the leaf discs were infested with an aphid population of mixed ages. The samples were assessed for mortality 6 days after infestation.

[6] = test system: Spodoptera littoralis (Egyptian Cotton Leaf Worm); experiment: Example B6: Activity against Spodoptera littoralis (Egyptian cotton leaf worm); type: in vivo; conditions: foliar, 72 h, application rate 200 ppm, L1 larvae on sprayed cotton leaf discs, 3 days after infestation, read-out: control (mortality, anti-feeding effect or growth inhibition)
How it was run: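 Cotton leaf discs on agar were sprayed with aqueous test solutions prepared from 10'000 ppm DMSO stocks. After drying, each disc was infested with five L1 larvae. Mortality, anti-feeding and growth inhibition were scored against untreated samples 3 days after infestation.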

[7] = test system: Diabrotica balteata (Corn Root Worm); experiment: Example B1: Activity against Diabrotica balteata (corn root worm), sprayed maize sprouts; type: in vivo; conditions: 96 h, application rate 200 ppm, L2 larvae on sprayed maize sprouts, 4 days after infestation, read-out: effect in at least one of the two categories (mortality or growth inhibition)
Experimental: Example B1: Activity Against Diabrotica balteata (Corn Root Worm)
Maize sprouts placed onto an agar layer in 24-well microtiter plates were treated with aqueous test solutions prepared from 10′000 ppm DMSO stock solutions by spraying. After drying, the plates were infested with L2 larvae (6 to 10 per well). The samples were assessed for mortality and growth inhibition in comparison to untreated samples 4 days after infestation.

Q: Which percent effect (mortality or growth inhibition) at 200 ppm [1] does the source give for `CCS(=O)(=O)c1ccc(C2CC2)nc1-c1cc2cnn(CC(F)(F)C(F)(F)F)c2cn1` [Compound P26, 5-(6-cyclopropyl-3-ethylsulfonyl-2-pyridyl)-1-(2,2,3,3,3,- pentafluoropropyl) pyrazolo[3,4-c]pyridine] here?
A: ≥ 80%

Q: What about the mortality at 200 ppm [2] of the same compound?
A: ≥ 80%

Q: What about the percent effect (mortality or growth inhibition) at 200 ppm [3] of the same compound?
A: ≥ 80%

Q: What about the mortality at 200 ppm [4] of the same compound?
A: ≥ 80%

Q: What about the mortality at 200 ppm [5] of the same compound?
A: ≥ 80%

Q: What about the percent control (mortality, anti-feedant effect or growth inhibition) at 200 ppm [6] of the same compound?
A: ≥ 80%

Q: What about the percent effect (mortality or growth inhibition) at 200 ppm [7] of the same compound?
A: ≥ 80%

Q: Which melting point does the source give for `CCSc1ccc(Cl)nc1-c1cc2ccn(CC(F)(F)C(F)(F)F)c2cn1` [Compound P48, 5-(6-chloro-3-ethylsulfanyl-2-pyridyl)-1-(2,2,3,3,3-pentafluoropropyl) pyrrolo[2,3-c]pyridine] here?
A: 185 to 188 °C

Q: With `CCSc1ccc[n+]([O-])c1-c1cc2ccn(CC(F)(F)C(F)(F)F)c2cn1` [PN2, 5-(3-ethylsulfanyl-1-oxido-pyridin-1-ium-2-yl)-1-(2,2,3,3,3-pentafluoropropyl) pyrrolo[2,3-c]pyridine] as the compound, how does the melting point read?
A: 181 to 185 °C

Q: Which mortality at 200 ppm ([4]; application rate 200 ppm, sprayed bean leaf discs, 8 days after infestation) does the source give for `CCSc1cc(C(C)(C)C#N)c[n+]([O-])c1-c1cc2ccn(CC(F)(F)C(F)(F)F)c2cn1` [PN6, 2-[5-ethylsulfanyl-1-oxido-6-[1-(2,2,3,3,3-pentafluoropropyl)pyrrolo[2,3-c]pyridin-5-yl]pyridin-1-ium-3-yl]-2-methyl-propanenitrile] here?
A: ≥ 80%
